Data published in the NIST ThermoML archive (doi:10.1021/acs.jced.8b00524).

Assay: xn = mol fraction of the nth substance listed
Conditions: 100 kPa, Liquid; for viscosity: Concentric cylinders viscometry; for mass density: Vibrating tube method

CCCCCCCCCCO [decan-1-ol] + CCCCOC(C)=O
Conditions | mass density [kg/m3] | viscosity [mPa·s]
293.15 K, x2 = 0 | 829.5 | 14.42
293.15 K, x2 = 0.0809 | 832 | 12.8
293.15 K, x2 = 0.1599 | 834.6 | 11.41
293.15 K, x2 = 0.2401 | 837.6 | 10.07
293.15 K, x2 = 0.3499 | 842 | 8.41
293.15 K, x2 = 0.4401 | 846 | 7.18
293.15 K, x2 = 0.5598 | 851.9 | 5.67
293.15 K, x2 = 0.6499 | 856.8 | 4.62
293.15 K, x2 = 0.7401 | 862.3 | 3.6
293.15 K, x2 = 0.8499 | 869.6 | 2.38
293.15 K, x2 = 0.9399 | 876.2 | 1.38
298.15 K, x2 = 0 | 826.1 | 11.8
298.15 K, x2 = 0.0809 | 828.4 | 10.44
298.15 K, x2 = 0.1599 | 830.9 | 9.29
298.15 K, x2 = 0.2401 | 833.7 | 8.2
298.15 K, x2 = 0.3499 | 838 | 6.86
298.15 K, x2 = 0.4401 | 841.8 | 5.87
298.15 K, x2 = 0.5598 | 847.5 | 4.61
298.15 K, x2 = 0.6499 | 852.3 | 3.75
298.15 K, x2 = 0.7401 | 857.5 | 2.94
298.15 K, x2 = 0.8499 | 864.7 | 1.97
298.15 K, x2 = 0.9399 | 871.1 | 1.19
303.15 K, x2 = 0 | 822.7 | 9.76
303.15 K, x2 = 0.0809 | 824.8 | 8.61
303.15 K, x2 = 0.1599 | 827.1 | 7.62
303.15 K, x2 = 0.2401 | 829.7 | 6.71
303.15 K, x2 = 0.3499 | 833.8 | 5.59
303.15 K, x2 = 0.4401 | 837.5 | 4.78
303.15 K, x2 = 0.5598 | 843 | 3.75
303.15 K, x2 = 0.6499 | 847.6 | 3.06
303.15 K, x2 = 0.7401 | 852.7 | 2.4
303.15 K, x2 = 0.8499 | 859.6 | 1.64
303.15 K, x2 = 0.9399 | 866 | 1.04
308.15 K, x2 = 0 | 819.3 | 8.14
308.15 K, x2 = 0.0809 | 821.2 | 7.15
308.15 K, x2 = 0.1599 | 823.4 | 6.31
308.15 K, x2 = 0.2401 | 825.8 | 5.54
308.15 K, x2 = 0.3499 | 829.6 | 4.61
308.15 K, x2 = 0.4401 | 833.1 | 3.93
308.15 K, x2 = 0.5598 | 838.5 | 3.11
308.15 K, x2 = 0.6499 | 842.9 | 2.54
308.15 K, x2 = 0.7401 | 847.9 | 2.02
308.15 K, x2 = 0.8499 | 854.6 | 1.4
308.15 K, x2 = 0.9399 | 860.8 | 0.9
313.15 K, x2 = 0 | 815.8 | 6.84
313.15 K, x2 = 0.0809 | 817.3 | 5.99
313.15 K, x2 = 0.1599 | 819.2 | 5.27
313.15 K, x2 = 0.2401 | 821.4 | 4.62
313.15 K, x2 = 0.3499 | 824.9 | 3.83
313.15 K, x2 = 0.4401 | 828.2 | 3.28
313.15 K, x2 = 0.5598 | 833.2 | 2.59
313.15 K, x2 = 0.6499 | 837.5 | 2.15
313.15 K, x2 = 0.7401 | 842.4 | 1.71
313.15 K, x2 = 0.8499 | 849.1 | 1.22
313.15 K, x2 = 0.9399 | 855.3 | 0.81
318.15 K, x2 = 0 | 812.4 | 5.8
318.15 K, x2 = 0.0809 | 813.7 | 5.06
318.15 K, x2 = 0.1599 | 815.3 | 4.45
318.15 K, x2 = 0.2401 | 817.2 | 3.89
318.15 K, x2 = 0.3499 | 820.3 | 3.22
318.15 K, x2 = 0.4401 | 823.4 | 2.75
318.15 K, x2 = 0.5598 | 828.2 | 2.18
318.15 K, x2 = 0.6499 | 832.4 | 1.8
318.15 K, x2 = 0.7401 | 837.2 | 1.45
318.15 K, x2 = 0.8499 | 843.9 | 1.05
318.15 K, x2 = 0.9399 | 850.2 | 0.73
323.15 K, x2 = 0 | 808.9 | 4.96
323.15 K, x2 = 0.0809 | 809.9 | 4.31
323.15 K, x2 = 0.1599 | 811.3 | 3.79
323.15 K, x2 = 0.2401 | 813 | 3.3
323.15 K, x2 = 0.3499 | 815.9 | 2.72
323.15 K, x2 = 0.4401 | 818.8 | 2.32
323.15 K, x2 = 0.5598 | 823.4 | 1.84
323.15 K, x2 = 0.6499 | 827.3 | 1.53
323.15 K, x2 = 0.7401 | 832.1 | 1.25
323.15 K, x2 = 0.8499 | 838.7 | 0.92
323.15 K, x2 = 0.9399 | 844.9 | 0.66

CCCCOC(C)=O [butyl ethanoate] + CCCCCCO
Conditions | mass density [kg/m3] | viscosity [mPa·s]
293.15 K, x1 = 0.0811 | 823.6 | 4.7
293.15 K, x1 = 0.1602 | 828.4 | 4.14
293.15 K, x1 = 0.2398 | 833.3 | 3.64
293.15 K, x1 = 0.3507 | 840.1 | 3.04
293.15 K, x1 = 0.4402 | 845.7 | 2.63
293.15 K, x1 = 0.5596 | 853.1 | 2.16
293.15 K, x1 = 0.6504 | 858.9 | 1.84
293.15 K, x1 = 0.7398 | 864.5 | 1.55
293.15 K, x1 = 0.8507 | 871.6 | 1.2
293.15 K, x1 = 0.9397 | 877.2 | 0.92
293.15 K, x1 = 1 | 881.1 | 0.732
298.15 K, x1 = 0.0811 | 819.8 | 3.99
298.15 K, x1 = 0.1602 | 824.4 | 3.5
298.15 K, x1 = 0.2398 | 829.1 | 3.06
298.15 K, x1 = 0.3507 | 835.8 | 2.56
298.15 K, x1 = 0.4402 | 841.2 | 2.22
298.15 K, x1 = 0.5596 | 848.5 | 1.82
298.15 K, x1 = 0.6504 | 854 | 1.56
298.15 K, x1 = 0.7398 | 859.6 | 1.32
298.15 K, x1 = 0.8507 | 866.5 | 1.05
298.15 K, x1 = 0.9397 | 872.1 | 0.83
298.15 K, x1 = 1 | 876 | 0.677
303.15 K, x1 = 0.0811 | 815.9 | 3.41
303.15 K, x1 = 0.1602 | 820.3 | 2.99
303.15 K, x1 = 0.2398 | 824.8 | 2.61
303.15 K, x1 = 0.3507 | 831.2 | 2.18
303.15 K, x1 = 0.4402 | 836.5 | 1.89
303.15 K, x1 = 0.5596 | 843.6 | 1.56
303.15 K, x1 = 0.6504 | 849.1 | 1.34
303.15 K, x1 = 0.7398 | 854.5 | 1.15
303.15 K, x1 = 0.8507 | 861.3 | 0.93
303.15 K, x1 = 0.9397 | 866.9 | 0.76
303.15 K, x1 = 1 | 870.9 | 0.628
308.15 K, x1 = 0.0811 | 812 | 2.94
308.15 K, x1 = 0.1602 | 816.2 | 2.57
308.15 K, x1 = 0.2398 | 820.6 | 2.24
308.15 K, x1 = 0.3507 | 826.7 | 1.86
308.15 K, x1 = 0.4402 | 831.8 | 1.61
308.15 K, x1 = 0.5596 | 838.7 | 1.33
308.15 K, x1 = 0.6504 | 844 | 1.16
308.15 K, x1 = 0.7398 | 849.4 | 1
308.15 K, x1 = 0.8507 | 856.2 | 0.82
308.15 K, x1 = 0.9397 | 861.7 | 0.69
308.15 K, x1 = 1 | 865.7 | 0.585
313.15 K, x1 = 0.0811 | 808 | 2.54
313.15 K, x1 = 0.1602 | 811.9 | 2.21
313.15 K, x1 = 0.2398 | 816 | 1.93
313.15 K, x1 = 0.3507 | 821.8 | 1.61
313.15 K, x1 = 0.4402 | 826.7 | 1.41
313.15 K, x1 = 0.5596 | 833.5 | 1.18
313.15 K, x1 = 0.6504 | 838.8 | 1.04
313.15 K, x1 = 0.7398 | 844.1 | 0.92
313.15 K, x1 = 0.8507 | 850.9 | 0.76
313.15 K, x1 = 0.9397 | 856.4 | 0.63
313.15 K, x1 = 1 | 860.5 | 0.546
318.15 K, x1 = 0.0811 | 804.2 | 2.21
318.15 K, x1 = 0.1602 | 807.9 | 1.92
318.15 K, x1 = 0.2398 | 811.7 | 1.68
318.15 K, x1 = 0.3507 | 817.4 | 1.4
318.15 K, x1 = 0.4402 | 822.1 | 1.23
318.15 K, x1 = 0.5596 | 828.6 | 1.05
318.15 K, x1 = 0.6504 | 833.8 | 0.93
318.15 K, x1 = 0.7398 | 839 | 0.83
318.15 K, x1 = 0.8507 | 845.7 | 0.7
318.15 K, x1 = 0.9397 | 851.2 | 0.59
318.15 K, x1 = 1 | 855.3 | 0.512
323.15 K, x1 = 0.0811 | 800.1 | 1.96
323.15 K, x1 = 0.1602 | 803.5 | 1.71
323.15 K, x1 = 0.2398 | 807.2 | 1.49
323.15 K, x1 = 0.3507 | 812.5 | 1.25
323.15 K, x1 = 0.4402 | 817.1 | 1.09
323.15 K, x1 = 0.5596 | 823.5 | 0.93
323.15 K, x1 = 0.6504 | 828.6 | 0.83
323.15 K, x1 = 0.7398 | 833.8 | 0.75
323.15 K, x1 = 0.8507 | 840.4 | 0.65
323.15 K, x1 = 0.9397 | 846 | 0.56
323.15 K, x1 = 1 | 850.1 | 0.485
